# Test results from the supplement of paper PMC10307832.
# What was measured:
# Test in all cases: relative viability (nuclei count vs DMSO), 5 days (fraction); higher = more cells survive
# Pazopanib + OSI-027 = compound: Cc1ccc(Nc2nccc(N(C)c3ccc4c(C)n(C)nc4c3)n2)cc1S(N)(=O)=O [Pazopanib] + COc1cccc2cc(-c3nc([C@H]4CC[C@H](C(=O)O)CC4)n4ncnc(N)c34)[nH]c12 [OSI-027] (partner 0.5 µM)
# How it was run: (§1)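 Lung cancer cell lines were pin-tool dosed in 1536-well plates on the day after seeding, with either a lone drug or a fixed anchor-drug dose plus five library-drug doses (not always all listed) in √10 steps. Nuclei were counted on 4× images after 5 days. Relative viability is the ratio of treated-well to vehicle-well nuclei counts, with each value a median of duplicate plates.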
# Ponatinib + Crizotinib = compound: Cc1ccc(C(=O)Nc2ccc(CN3CCN(C)CC3)c(C(F)(F)F)c2)cc1C#Cc1cnc2cccnn12 [Ponatinib] + C[C@@H](Oc1cc(-c2cnn(C3CCNCC3)c2)cnc1N)c1c(Cl)ccc(F)c1Cl [Crizotinib] (partner 1 µM)
# How it was run: as §1
# Ponatinib + Luminespib = compound: Cc1ccc(C(=O)Nc2ccc(CN3CCN(C)CC3)c(C(F)(F)F)c2)cc1C#Cc1cnc2cccnn12 [Ponatinib] + CCNC(=O)c1noc(-c2cc(C(C)C)c(O)cc2O)c1-c1ccc(CN2CCOCC2)cc1 [Luminespib] (partner 0.01 µM)
# How it was run: as §1
# Ponatinib + Pemetrexed = compound: Cc1ccc(C(=O)Nc2ccc(CN3CCN(C)CC3)c(C(F)(F)F)c2)cc1C#Cc1cnc2cccnn12 [Ponatinib] + Nc1nc2[nH]cc(CCc3ccc(C(=O)N[C@@H](CCC(=O)O)C(=O)O)cc3)c2c(=O)[nH]1 [Pemetrexed] (partner 0.2 µM)
# How it was run: as §1
Cell Line,relative viability (Pazopanib + OSI-027; first compound 0.03162 µM),relative viability (Pazopanib + OSI-027; first compound 0.1 µM),relative viability (Pazopanib + OSI-027; first compound 0.3162 µM),relative viability (Pazopanib + OSI-027; first compound 1 µM),relative viability (Ponatinib + Crizotinib; first compound 0.002 µM),relative viability (Ponatinib + Crizotinib; first compound 0.006325 µM),relative viability (Ponatinib + Crizotinib; first compound 0.06325 µM),relative viability (Ponatinib + Crizotinib; first compound 0.2 µM),relative viability (Ponatinib + Luminespib; first compound 0.002 µM),relative viability (Ponatinib + Luminespib; first compound 0.006325 µM),relative viability (Ponatinib + Luminespib; first compound 0.06325 µM),relative viability (Ponatinib + Luminespib; first compound 0.2 µM),relative viability (Ponatinib + Pemetrexed; first compound 0.002 µM),relative viability (Ponatinib + Pemetrexed; first compound 0.006325 µM),relative viability (Ponatinib + Pemetrexed; first compound 0.06325 µM),relative viability (Ponatinib + Pemetrexed; first compound 0.2 µM),relative viability (Pazopanib + OSI-027; first compound 0.01 µM)
NCI-H596,0.74,0.568,0.879,0.632,0.905,0.891,0.917,0.843,1.06,1.07,1.01,0.686,0.478,0.467,0.48,0.469,–
NCI-H647,0.688,0.723,0.902,0.739,0.851,1.07,1.12,0.989,0.136,0.225,0.158,0.234,0.203,0.193,0.17,0.203,0.594
NCI-H650,0.523,0.517,0.544,0.482,0.598,0.663,0.695,0.605,0.807,0.783,0.958,0.775,0.815,0.965,0.948,0.872,0.464
NCI-H661,0.784,0.745,0.689,0.735,1.02,1.04,0.99,1.13,0.916,0.903,0.898,0.927,0.965,0.968,0.932,0.87,0.669
NCI-H838,0.488,0.373,0.42,0.555,0.793,0.95,0.813,0.789,0.324,0.324,0.298,0.3,0.234,0.249,0.255,0.227,0.435
NCI-H1355,0.441,0.396,0.423,0.477,0.989,1.06,1.16,1.15,0.688,0.667,0.874,0.709,0.983,0.975,1.14,1.07,0.37
NCI-H1437,0.879,0.998,0.907,1.05,0.899,0.957,0.967,0.763,1.18,1.09,1.25,1.09,0.312,0.294,0.32,0.27,0.901
NCI-H1563,0.802,0.788,0.802,0.734,0.843,0.792,0.921,0.843,0.48,0.535,0.595,0.476,0.748,0.798,0.745,0.641,0.716
NCI-H1650,0.759,0.744,0.803,0.699,1.03,0.939,1.17,0.821,0.255,0.236,0.2,0.186,0.345,0.334,0.44,0.36,0.727
NCI-H1651,0.742,0.728,0.715,0.871,0.835,0.852,0.897,0.876,0.986,0.864,0.915,1.05,0.558,0.627,0.614,0.588,0.66
NCI-H1666,0.953,0.882,0.866,0.948,0.951,0.978,1.06,0.989,1.02,0.998,1.09,0.986,0.847,0.829,0.928,0.837,0.86
NCI-H1734,0.555,0.558,0.567,0.605,0.638,0.657,0.647,0.577,0.195,0.181,0.186,0.173,0.394,0.399,0.44,0.395,0.56
NCI-H1755,0.653,0.671,0.678,0.632,0.858,0.869,0.896,0.822,0.249,0.696,0.561,0.359,0.402,0.404,0.398,0.466,0.693
NCI-H1792,0.714,0.702,0.746,0.673,0.956,0.988,1.1,0.976,0.354,0.422,0.465,0.389,0.698,0.849,1.14,0.746,–
NCI-H1915,0.659,0.626,0.588,0.64,0.801,0.844,0.839,0.794,0.754,0.769,0.805,0.672,0.459,0.423,0.529,0.423,0.61
NCI-H1944,0.422,0.46,0.441,0.48,1.07,1.24,1.23,1.01,0.666,0.684,0.833,0.743,0.631,0.662,0.676,0.719,–
NCI-H1975,0.723,0.861,0.735,0.734,0.929,1.02,1.01,0.943,0.248,0.24,0.289,0.165,0.276,0.293,0.297,0.257,0.677
NCI-H1993,0.603,0.599,0.479,0.461,0.796,1.01,1.01,1,0.778,0.921,0.991,0.932,0.691,0.62,0.573,0.678,–

Cell Line,relative viability (Pazopanib + OSI-027; first compound 0.03162 µM),relative viability (Pazopanib + OSI-027; first compound 0.1 µM),relative viability (Pazopanib + OSI-027; first compound 0.3162 µM),relative viability (Pazopanib + OSI-027; first compound 1 µM),relative viability (Ponatinib + Crizotinib; first compound 0.002 µM),relative viability (Ponatinib + Crizotinib; first compound 0.006325 µM),relative viability (Ponatinib + Crizotinib; first compound 0.06325 µM),relative viability (Ponatinib + Crizotinib; first compound 0.2 µM),relative viability (Ponatinib + Luminespib; first compound 0.002 µM),relative viability (Ponatinib + Luminespib; first compound 0.006325 µM),relative viability (Ponatinib + Luminespib; first compound 0.06325 µM),relative viability (Ponatinib + Luminespib; first compound 0.2 µM),relative viability (Ponatinib + Pemetrexed; first compound 0.002 µM),relative viability (Ponatinib + Pemetrexed; first compound 0.006325 µM),relative viability (Ponatinib + Pemetrexed; first compound 0.06325 µM),relative viability (Ponatinib + Pemetrexed; first compound 0.2 µM),relative viability (Pazopanib + OSI-027; first compound 0.01 µM)
NCI-H2009,0.622,0.566,0.56,0.44,1.04,0.975,1.11,1.02,0.975,0.967,1.02,0.918,1.05,0.935,0.959,0.934,0.576
NCI-H2023,0.425,0.35,0.42,0.536,0.711,0.769,0.788,0.664,0.749,0.749,0.748,0.543,0.17,0.222,0.235,0.186,0.417
NCI-H2085,0.782,0.752,0.719,0.787,0.837,0.704,0.939,0.842,0.459,0.459,0.446,0.432,0.852,0.894,1.04,0.874,0.817
NCI-H2087,0.567,0.489,0.553,0.487,0.669,0.654,0.839,0.853,0.167,0.135,0.178,0.176,0.673,0.648,0.657,0.579,0.502
NCI-H2126,0.612,0.68,0.718,0.719,0.97,1.02,1.1,1.03,0.874,0.955,1.04,0.873,0.835,0.757,0.818,0.658,0.643
NCI-H2170,0.695,0.719,0.703,0.655,1.13,1.15,1.22,1.17,0.671,0.697,0.665,0.646,0.238,0.263,0.281,0.331,0.728
NCI-H2228,0.495,0.532,0.507,0.655,0.434,0.41,0.385,0.234,0.134,0.178,0.109,0.129,0.382,0.339,0.358,0.306,0.518
NCI-H2347,0.465,0.402,0.405,0.344,0.694,0.885,0.668,0.688,0.6,0.544,0.487,0.435,0.41,0.444,0.474,0.485,0.425
NCI-H2405,0.67,0.72,0.656,0.736,0.75,0.917,0.821,0.732,0.664,0.833,0.941,0.64,0.913,1.06,1.1,1.01,0.628
NCI-H3122,0.958,1.02,1.05,1.26,0.267,0.278,0.315,0.366,0.113,0.0854,0.128,0.109,0.208,0.194,0.214,0.194,0.985
PC-3 [JPC-3],0.806,0.747,0.756,0.661,0.925,1.04,1.11,0.989,0.649,0.697,0.811,0.668,–,1.09,1.12,1.1,0.929
PC-14,0.937,1.06,0.849,1.01,0.866,0.901,0.966,0.946,0.127,0.147,0.195,0.138,0.129,0.137,0.141,0.122,0.871
RERF-LC-KJ,0.605,0.605,0.515,0.617,0.816,0.766,0.928,0.834,1.17,1.32,1.47,1.21,0.468,0.492,0.486,0.453,0.677
SK-LU-1,0.345,0.385,0.395,0.352,0.804,0.948,0.963,0.777,0.196,0.213,0.2,0.175,0.978,1.07,0.958,0.84,0.452
SK-MES-1,0.629,0.654,0.585,0.578,0.978,1,1.04,0.92,0.761,0.89,1.01,0.745,0.89,0.934,1.16,0.948,0.643
SW 1573,0.728,0.684,0.715,0.765,0.707,0.876,0.887,0.608,0.266,0.321,0.25,0.259,0.841,0.802,0.835,0.838,0.566
UMC-11,0.544,0.442,0.504,0.541,0.678,0.603,0.786,0.612,1.07,1.16,1.04,0.979,0.794,0.821,0.862,0.685,0.501
